Entries after “also recorded” stand apart in the source; their conditions may differ.
Columns and labels:
mTORCI = details: cited from earlier work
mTORC2 = details: cited from earlier work
[1] = tested on: Human serum albumin (HSA); details: cited from earlier work
human plasma proteins = details: cited from earlier work
[2] = Phase I study of oral pazopanib and intravenous nab-sirolimus: safety (adverse events, dose-limiting toxicity, recommended dose); format: in vivo, human; details: by mouth daily, in combination with nab-sirolimus 30 mg/m^2
Text: This was a phase I study designed to determine the safety and feasibility of a combination of oral pazopanib hydrochloride and intravenous nab-sirolimus. To obtain preliminary information regarding efficacy, the study had limited enrollment to those patients with advanced/unresectable STS for whom single agent pazopanib was indicated as a therapy.
The primary endpoint of the study was the determination of a maximum-tolerated dose (MTD) and recommended Phase 2 dose of nab-sirolimus combined with pazopanib. Secondary endpoints included characterization of adverse events of the nab-sirolimus/pazopanib combination and descriptive characterization of clinical benefit of the nab-sirolimus/pazopanib combination (objective responses, progression-free survival duration, and clinical benefit rates at 3 and 6 months). Correlative endpoints were included to evaluate the correlation of clinical benefit with baseline mTOR pathway activation status, as assessed by immunohistochemistry for phosphorylated-S6 ribosomal protein, correlation of clinical benefit with baseline tumoral expression of Serum Protein Acidic and Rich in Cysteine (SPARC)/Osteonectin, as assessed by immunohistochemistry, and pharmacokinetics of nab-sirolimus in combination with pazopanib.
If no DLT occurred after two doses, escalation to the next dose level was permitted. […]

soft-tissue sarcoma = details: single agent pazopanib, soft-tissue sarcoma patients; cited from earlier work

## COc1cccc2cc(-c3nc([C@H]4CC[C@H](C(=O)O)CC4)n4ncnc(N)c34)[nH]c12 [OSI-027]
mTORCI
  IC50: 22 nM
mTORC2
  IC50: 65 nM

## CO[C@H]1C[C@@H]2CC[C@@H](C)[C@@](O)(O2)C(=O)C(=O)N2CCCC[C@H]2C(=O)O[C@H]([C@H](C)C[C@@H]2CC[C@@H](O)[C@H](OC)C2)CC(=O)[C@H](C)/C=C(\C)[C@@H](O)[C@@H](OC)C(=O)[C@H](C)C[C@H](C)/C=C/C=C/C=C/1C [Rapamycin, rapamycin]
[1]
  binding to HSA: bind HSA

## CC(=O)O[C@@]12CO[C@@H]1C[C@H](O)[C@@]1(C)C(=O)[C@H](O)C3=C(C)[C@@H](OC(=O)[C@H](O)[C@@H](NC(=O)OC(C)(C)C)c4ccccc4)C[C@@](O)([C@@H](OC(=O)c4ccccc4)[C@H]21)C3(C)C [docetaxel]
Human plasma proteins
  binding to human plasma proteins: bind to human plasma proteins

## Cc1ccc(Nc2nccc(N(C)c3ccc4c(C)n(C)nc4c3)n2)cc1S(N)(=O)=O [pazopanib]
[2]
  Recommended Phase 2 dose of pazopanib: 400 mg
soft-tissue sarcoma
  overall survival compared to placebo control: did not have a meaningful improvement in overall survival rate; also recorded: not found to provide a significant difference in overall survival
  response rate: ~6%

## CC(C)c1cccc(C(C)C)c1O [propofol]
[1]
  binding to HSA: bind HSA

— patent US20260315447A1, “COMBINATION THERAPY WITH A MTOR INHIBITOR AND A MULTI-TYROSINE KINASE INHIBITOR FOR TREATING SOFT TISSUE SARCOMA” (ADDi Bioscience, Inc., priority 2023, published 2026)
